How the values were obtained:
Assay type in all cases: biochemical
[1] = target: T1, human B-Raf protein kinase (Homo sapiens, UniProt P15056); assay: In vitro B-Raf/Mek1 composite kinase assay
T1 construct: GST (N); purchased Upstate Inc. 14-530 (B-Raf); 14-420 (Mek1)
Procedure: In Vitro B-Raf/Mek1 Composite Kinase Assay
2.5 μl of B-Raf kinase buffer (20 mM MOPS [pH 7.2], 25 mM sodium glycerophosphate, 2 mM EGTA [pH 8.0], 1 mM sodium orthovanadate, 1 mM dithiothreitol, 10 mM MgCl2, 0.03% Brij-35, 0.3 mg/ml bovine serum albumin) containing lng of recombinant, N-terminal GST-tagged human B-Raf protein kinase (Δ1-415, Upstate Inc., cat. #14-530) is dispensed to wells of a 1536 multi-well white solid plate. 60 nl of 100× concentration of test compound in DMSO is dispensed to the well by passive pin transfer and incubated for 15 minutes at room temperature (approx. 22° C.). […] The assay plates are sealed and maintained in a humidified environment. After 2 hours, 2.5 μl of PKLight protein kinase assay reagent (Cambrex, cat. #LT07-501) is dispensed. After an additional 5 minute incubation at room temperature, luminescence activity is measured on a Molecular Devices Analyst multi-mode plate reader or other suitable plate reader. Kinase inhibition results in less ATP depletion, and therefore increased luminescence signal. Negative control activity is measured with DMSO lacking any test compound. The positive control is [N-(3-trifluoromethyl-4-chlorophenyl)-N′-(4-(2-methylcarbamoyl-pyridin-4-yl)oxyphenyl)urea], aka Bay 43-9006. Efficacy is measured as a percentage of positive control activity.

PDGFRβ kinase = target: T2, PDGFRβ kinase (Homo sapiens, UniProt P09619); assay: In vitro PDGFRβ kinase assay
T2 construct: purchased Invitrogen Inc. P3082
T2 sequence (P09619 33-1106): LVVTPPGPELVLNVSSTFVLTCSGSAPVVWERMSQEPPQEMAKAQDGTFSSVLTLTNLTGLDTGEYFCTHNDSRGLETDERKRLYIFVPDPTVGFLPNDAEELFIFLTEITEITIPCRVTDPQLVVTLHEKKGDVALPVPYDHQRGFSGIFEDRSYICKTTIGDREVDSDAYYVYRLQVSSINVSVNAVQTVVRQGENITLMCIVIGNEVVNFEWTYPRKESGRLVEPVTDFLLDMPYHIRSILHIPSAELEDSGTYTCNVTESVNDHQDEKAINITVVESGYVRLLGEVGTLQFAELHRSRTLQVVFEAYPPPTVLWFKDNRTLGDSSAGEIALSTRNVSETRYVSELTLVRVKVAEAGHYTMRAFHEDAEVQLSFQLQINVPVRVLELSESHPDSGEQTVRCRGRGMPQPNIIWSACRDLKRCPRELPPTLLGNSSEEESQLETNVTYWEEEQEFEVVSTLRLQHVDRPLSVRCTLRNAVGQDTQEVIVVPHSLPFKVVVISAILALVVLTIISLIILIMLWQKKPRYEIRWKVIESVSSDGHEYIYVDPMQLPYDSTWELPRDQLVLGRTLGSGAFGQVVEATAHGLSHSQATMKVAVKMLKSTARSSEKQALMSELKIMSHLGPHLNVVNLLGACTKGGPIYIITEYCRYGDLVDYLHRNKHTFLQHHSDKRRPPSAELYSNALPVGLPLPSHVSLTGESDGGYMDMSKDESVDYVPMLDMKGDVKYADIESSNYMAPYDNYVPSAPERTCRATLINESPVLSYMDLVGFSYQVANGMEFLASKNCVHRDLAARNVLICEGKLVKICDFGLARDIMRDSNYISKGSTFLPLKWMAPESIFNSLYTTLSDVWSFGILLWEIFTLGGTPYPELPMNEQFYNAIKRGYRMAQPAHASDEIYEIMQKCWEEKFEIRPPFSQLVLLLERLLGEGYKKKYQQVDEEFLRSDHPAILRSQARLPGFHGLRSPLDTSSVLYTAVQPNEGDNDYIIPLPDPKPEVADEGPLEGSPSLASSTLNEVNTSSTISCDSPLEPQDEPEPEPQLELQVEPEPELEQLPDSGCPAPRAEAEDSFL
Procedure: (§1) In Vitro VEGFR2 and PDGFRP Kinase Assays
(§2) 2.5 μl of ADP Quest assay buffer (DiscoverX Inc., cat. #90-0071) containing 20 ng VEGFR2 kinase (Invitrogen Inc, cat. #PV3660) or 25 ng PDGFRβ kinase (Invitrogen Inc., cat. #P3082) is dispensed to wells of a 1536 multi-well, black solid plate. 60 nl of 100× concentration of test compound in DMSO is dispensed to the well by passive pin transfer and incubated for 10 minutes at room temperature (approx. 22° C.). 2.5 μl of ADP Quest assay buffer containing 0.25 μg of poly Glu:Tyr (4:1) substrate peptide (Upstate Inc., cat. #12-440) and 60 μM ATP is then dispensed and the kinase reaction allowed to incubate at 30° C. for 2 hours. The assay plates are sealed and maintained in a humidified environment. After the 2 hour incubation, 2 μl of ADP Quest assay reagent A, followed by 2 μl of assay reagent B, is added. After an additional 30 minute incubation at room temperature, fluorescence intensity is measured on a Molecular Devices Aquest multi-mode plate reader or other suitable plate reader (fluorescence excitation filter: 530/25 [Peak(nm)/FWHM passband(nm)]; dichroic beamsplitter: 561 nm longpass; fluorescence emission filter: 580/10 [Peak(nm)/FWHM passband(nm)]. The assay measures the conversion of a non-fluoresecent molecule to fluorescent resorufin, which correlates with kinase activity. Negative control activity is measured with DMSO lacking any test compound. The positive control is [N-(3-trifluoromethyl-4-chlorophenyl)-N′-(4-(2-methylcarbamoyl-pyridin-4-yl)oxyphenyl)urea], aka Bay 43-9006. Efficacy is measured as a percentage of positive control activity.

VEGFR2 kinase = target: T3, VEGFR2 kinase (Homo sapiens, UniProt P35968); assay: In vitro VEGFR2 kinase assay
T3 construct: purchased Invitrogen Inc PV3660
T3 sequence (P35968 20-1356): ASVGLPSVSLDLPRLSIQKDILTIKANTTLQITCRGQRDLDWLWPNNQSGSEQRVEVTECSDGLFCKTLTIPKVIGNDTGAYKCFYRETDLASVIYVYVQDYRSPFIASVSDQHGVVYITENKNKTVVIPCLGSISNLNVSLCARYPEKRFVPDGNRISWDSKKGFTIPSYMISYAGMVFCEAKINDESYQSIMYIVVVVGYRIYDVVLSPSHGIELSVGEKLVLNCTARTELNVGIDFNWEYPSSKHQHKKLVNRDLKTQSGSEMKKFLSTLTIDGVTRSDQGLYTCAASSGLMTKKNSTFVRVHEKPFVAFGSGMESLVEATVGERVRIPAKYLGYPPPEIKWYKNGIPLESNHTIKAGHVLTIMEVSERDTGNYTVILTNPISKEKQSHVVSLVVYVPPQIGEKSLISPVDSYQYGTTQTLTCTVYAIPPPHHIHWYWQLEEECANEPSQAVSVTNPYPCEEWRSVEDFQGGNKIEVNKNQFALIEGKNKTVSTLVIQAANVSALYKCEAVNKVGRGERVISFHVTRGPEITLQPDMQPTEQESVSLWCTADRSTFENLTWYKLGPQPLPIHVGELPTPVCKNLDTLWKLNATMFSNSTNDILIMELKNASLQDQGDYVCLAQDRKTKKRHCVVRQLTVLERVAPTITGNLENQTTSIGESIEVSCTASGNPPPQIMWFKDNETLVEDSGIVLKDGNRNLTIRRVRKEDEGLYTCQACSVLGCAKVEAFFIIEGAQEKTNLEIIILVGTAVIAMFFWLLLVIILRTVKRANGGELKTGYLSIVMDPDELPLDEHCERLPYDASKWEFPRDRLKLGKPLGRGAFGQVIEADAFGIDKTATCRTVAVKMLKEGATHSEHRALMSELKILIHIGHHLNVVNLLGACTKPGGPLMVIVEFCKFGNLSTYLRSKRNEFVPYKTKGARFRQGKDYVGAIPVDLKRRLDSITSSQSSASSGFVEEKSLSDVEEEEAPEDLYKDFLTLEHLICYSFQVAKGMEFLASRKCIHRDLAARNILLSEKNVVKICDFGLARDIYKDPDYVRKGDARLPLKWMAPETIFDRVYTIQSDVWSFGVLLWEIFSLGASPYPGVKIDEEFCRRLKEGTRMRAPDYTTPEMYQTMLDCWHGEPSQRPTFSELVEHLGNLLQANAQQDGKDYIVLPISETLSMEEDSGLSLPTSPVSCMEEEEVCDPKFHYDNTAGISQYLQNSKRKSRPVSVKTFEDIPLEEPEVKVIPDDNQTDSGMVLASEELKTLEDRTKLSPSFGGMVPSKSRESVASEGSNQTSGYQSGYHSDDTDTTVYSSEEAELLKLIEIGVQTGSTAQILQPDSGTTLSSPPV
Procedure: as §1, §2

T1 sequence (P15056 416-766): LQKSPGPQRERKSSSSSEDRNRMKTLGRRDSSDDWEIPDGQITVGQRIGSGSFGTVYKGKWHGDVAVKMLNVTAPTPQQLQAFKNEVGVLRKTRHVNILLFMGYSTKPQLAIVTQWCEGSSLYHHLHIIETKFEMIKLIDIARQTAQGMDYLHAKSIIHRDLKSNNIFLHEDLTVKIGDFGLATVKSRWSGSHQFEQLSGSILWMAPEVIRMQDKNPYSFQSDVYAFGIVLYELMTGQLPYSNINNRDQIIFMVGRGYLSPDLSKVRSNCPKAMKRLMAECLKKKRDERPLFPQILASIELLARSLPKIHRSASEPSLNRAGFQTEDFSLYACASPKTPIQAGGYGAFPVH

IC50 [1] [µM]	IC50 (PDGFRβ kinase) [µM]	IC50 (VEGFR2 kinase) [µM]	Compound
> 10	> 10	> 10	CC(C#N)c1cccc(C(=O)Nc2cccc(Oc3ccnc(-c4cnn(C)c4)c3)c2)c1 (racemic) [Example 48, (±)-3-(1-Cyanoethyl)-N-(3-(2-(1-methyl-1H-pyrazol-4-yl)pyridin-4-yloxy)phenyl)benzamide]
> 10	> 10	> 10	CCOc1cc(OCC)cc(C(=O)Nc2cc(Oc3cc(-c4cnn(C)c4)ncn3)ccc2F)c1 [Example 17, 3,5-Diethoxy-N-(2-fluoro-5-(6-(1-methyl-1H-pyrazol-4-yl)pyrimidin-4-yloxy)phenyl)benzamide]
> 10	≤ 10	≤ 10	CCOc1cc(OCC)cc(C(=O)Nc2cccc(Oc3cc(-c4nc(C(F)(F)F)c[nH]4)ncn3)c2)c1 [Example 18, 3,5-Diethoxy-N-(3-(6-(4-(trifluoromethyl)-1H-imidazol-2-yl)pyrimidin-4-yloxy)phenyl)benzamide]
≤ 10	≤ 10	≤ 10	CCOc1cc(OCC)cc(C(=O)Nc2ccc(Oc3ccnc(-c4cnn(C)c4)c3)cc2)c1 [Example 20, 3,5-Diethoxy-N-(4-(2-(1-methyl-1H-pyrazol-4-yl)pyridin-4-yloxy)phenyl)benzamide]
> 10	> 10	> 10	Cn1cc(-c2cc(Oc3cccc(NC(=O)c4ccc(Cl)c(C(F)(F)F)c4)c3)ccn2)cn1 [Example 21, 4-Chloro-N-(3-(2-(1-methyl-1H-pyrazol-4-yl)pyridin-4-yloxy)phenyl)-3-(trifluoromethyl)benzamide]
≤ 10	≤ 10	≤ 10	Cn1cc(-c2cc(Oc3ccc(NC(=O)c4ccc(Cl)c(C(F)(F)F)c4)cc3)ccn2)cn1 [Example 22, 4-Chloro-N-(4-(2-(1-methyl-1H-pyrazol-4-yl)pyridin-4-yloxy)phenyl)-3-(trifluoromethyl)benzamide]
> 10	> 10	> 10	Cn1cc(-c2cc(Oc3cccc(NC(=O)c4ccc(OC(F)(F)F)cc4)c3)ncn2)cn1 [Example 23, N-(3-(6-(1-Methyl-1H-pyrazol-4-yl)pyrimidin-4-yloxy)phenyl)-4-(trifluoromethoxy)benzamide]
> 10	≤ 10	> 10	CCOc1cc(OCC)cc(C(=O)Nc2cccc(Oc3cc(-c4cnn(C)c4)ncn3)c2)c1 [Example 24, 3,5-Diethoxy-N-(3-(6-(1-methyl-1H-pyrazol-4-yl)pyrimidin-4-yloxy)phenyl)benzamide]
> 10	> 10	> 10	Cn1cc(-c2cc(Oc3cccc(NC(=O)c4ccc(Cl)c(C(F)(F)F)c4)c3)ncn2)cn1 [Example 25, 4-Chloro-N-(3-(6-(1-methyl-1H-pyrazol-4-yl)pyrimidin-4-yloxy)phenyl)-3-(trifluoromethyl)benzamide]
> 10	> 10	> 10	Cn1cc(-c2cc(Oc3ccc(F)c(NC(=O)c4ccc(Cl)c(C(F)(F)F)c4)c3)ncn2)cn1 [Example 26, 4-Chloro-N-(2-fluoro-5-(6-(1-methyl-1H-pyrazol-4-yl)pyrimidin-4-yloxy)phenyl)-3-(trifluoromethyl)benzamide]
> 10	> 10	> 10	Cn1cc(-c2nccc(Oc3cccc(NC(=O)c4ccc(OC(F)(F)F)cc4)c3)n2)cn1 [Example 27, N-{3-[2-(1-Methyl-1H-pyrazol-4-yl)-pyrimidin-4-yloxy]-phenyl}-4-trifluoromethoxy-benzamide]

Continued, compound first:

Compound	IC50 [1] [µM]	IC50 (PDGFRβ kinase) [µM]	IC50 (VEGFR2 kinase) [µM]
O=C(Cc1ccc(F)c(C(F)(F)F)c1)Nc1cccc(Oc2ccnc(-c3nnco3)c2)c1 [Example 1, N-(3-(2-(1,3,4-Oxadiazol-2-yl)pyridin-4-yloxy)phenyl)-2-(4-fluoro-3-(trifluoromethyl)phenyl)acetamide]	> 10	> 10	≤ 10
CCOc1cc(C(=O)Nc2cccc(Oc3ccnc(-c4nnco4)c3)c2)cc(OCC)c1OCC [Example 2, N-(3-(2-(1,3,4-Oxadiazol-2-yl)pyridin-4-yloxy)phenyl)-3,4,5-triethoxybenzamide]	> 10	> 10	≤ 10
O=C(Nc1cccc(Oc2ccnc(-c3nnco3)c2)c1)c1cccc(Oc2ccccc2)c1 [Example 4, N-(3-(2-(1,3,4-Oxadiazol-2-yl)pyridin-4-yloxy)phenyl)-3-phenoxybenzamide]	> 10	≤ 10	≤ 10
O=C(Nc1cccc(Oc2ccnc(-c3nnco3)c2)c1)c1ccc(Oc2ccccc2)cc1 [Example 5, N-(3-(2-(1,3,4-Oxadiazol-2-yl)pyridin-4-yloxy)phenyl)-4-phenoxybenzamide]	> 10	> 10	≤ 10
O=C(Nc1cccc(Oc2ccnc(-c3nnco3)c2)c1)c1ccc2c(c1)OCCCO2 [Example 6, N-(3-(2-(1,3,4-Oxadiazol-2-yl)pyridin-4-yloxy)phenyl)-3,4-dihydro-2H-benzo[b][1,4]dioxepine-7-carboxamide]	> 10	> 10	≤ 10
CCOc1cc(OCC)cc(C(=O)Nc2cccc(Oc3ccnc(-c4nnco4)c3)c2)c1 [Example 7, N-(3-(2-(1,3,4-Oxadiazol-2-yl)pyridin-4-yloxy)phenyl)-3,5-diethoxybenzamide]	> 10	> 10	> 10
CCOc1ccc(C(=O)Nc2cccc(Oc3ccnc(-c4nnco4)c3)c2)cc1OCC [Example 8, N-(3-(2-(1,3,4-Oxadiazol-2-yl)pyridin-4-yloxy)phenyl)-3,4-diethoxybenzamide]	> 10	> 10	≤ 10
COc1ccc(C(=O)Nc2cccc(Oc3ccnc(-c4nnco4)c3)c2)cc1OC1CCCC1 [Example 9, N-(3-(2-(1,3,4-Oxadiazol-2-yl)pyridin-4-yloxy)phenyl)-3-(cyclopentyloxy)-4-methoxybenzamide]	> 10	≤ 10	≤ 10
CCCCOc1cc(C(=O)Nc2cccc(Oc3ccnc(-c4nnco4)c3)c2)ccc1OC [Example 10, N-(3-(2-(1,3,4-Oxadiazol-2-yl)pyridin-4-yloxy)phenyl)-3-butoxy-4-methoxybenzamide]	> 10	≤ 10	≤ 10
O=C(Nc1cccc(Oc2ccnc(-c3nnco3)c2)c1)c1cccc(N2CCCCC2)c1 [Example 11, N-[3-(2-[1,3,4]Oxadiazol-2-yl-pyridin-4-yloxy)-phenyl]-3-piperidin-1-yl-benzamide]	> 10	> 10	≤ 10
O=C(Nc1cccc(Oc2ccnc(-c3nnco3)c2)c1)c1cccc(N2CCOCC2)c1 [Example 12, 3-Morpholin-4-yl-N-[3-(2-[1,3,4]oxadiazol-2-yl-pyridin-4-yloxy)-phenyl]-benzamide]	> 10	≤ 10	≤ 10
CCOc1cc(C(=O)Nc2cccc(Oc3ccnc(C(=O)NC)c3)c2)cc(OCC)c1OCC [Example 13, N-Methyl-4-(3-(3,4,5-triethoxybenzamido)phenoxy)picolinamide]	> 10	≤ 10	≤ 10
CCOc1cc(OCC)cc(C(=O)Nc2cccc(Oc3ccnc(C(=O)NC)c3)c2)c1 [Example 14, 4-(3-(3,5-Diethoxybenzamido)phenoxy)-N-methylpicolinamide]	> 10	> 10	> 10
CNC(=O)c1cc(Oc2cccc(NC(=O)c3ccc(OC)c(OC4CCCC4)c3)c2)ccn1 [Example 15, 4-(3-(3-(Cyclopentyloxy)-4-methoxybenzamido)phenoxy)-N-methylpicolinamide]	> 10	≤ 10	≤ 10
